Results on 40 compounds are retold here after US20240139188A1, “Arylamide Compounds For Treatment And Prevention Of Fungal Infections” (priority 2022, published 2024).

This experiment has as its system A. fumigatus. The experiment is described as follows: Protein kinase inhibitor (PKI) library screen with or without BRI. The following applies: for growth, PKI (20 μM): PKI 20 μM alone; for growth, PKI (20 μM) + BRI (20 μM): PKI 20 μM together with BRI 20 μM; for activity at 20 µM: Aspergillus fumigatus, 48 h, read-out: growth, PKI (20 μM).

Experimental: A protein kinase inhibitors (PKI) library was also screened in combination with BRI. In total, 58 PKI were analyzed. Briefly, 100 μL of liquid MM containing 2.5×10^3 conidia/mL of the A. fumigatus wild-type strain plus 10% alamar blue was inoculated with increasing concentration of PKI (5-80 μM) in the presence (or not) of BRI (20μM) and incubated 48 hours at 37° C. without shaking. […] Plates were incubated for 48 hours at 37° C. without shaking. All experiments containing alamar blue were, after 48 hours incubation, read spectrophotometically by fluorescence and analyzed as previously described. Experiments were repeated at least three times.
To assess the mechanism of action of BRI, a collection of 58 protein kinase inhibitors (PKI, at a concentration of 20 μM; Table 4) was screened for A. fumigatus growth and corresponding metabolic activity alone or together with 20 μM BRI (Table 4).

Consider `Nc1ncnc2c1c(I)cn2[C@@H]1O[C@H](CO)[C@@H](O)[C@H]1O` [5 + iodo tubercidin], for which the “growth, PKI (20 μM)” value is “+ (+: growth ≤60% compared to no treatment)” and the “growth, PKI (20 μM) + BRI (20 μM)” value was “++ (++: growth ≥80% compared to no treatment)”.

On to `Clc1ccc(C2(c3ccc(-c4cn[nH]c4)cc3)CCNCC2)cc1` [AT7867], for which the “growth, PKI (20 μM)” value is given as “++ (++: growth ≥80% compared to no treatment)” and the “growth, PKI (20 μM) + BRI (20 μM)” value is listed as “++ (++: growth ≥80% compared to no treatment)”.

Regarding `N#Cc1ccc2[nH]c(O)c(-c3ccc(CN4CCOCC4)cn3)c2c1` [AZD1080], the activity at 20 µM was over 80% and the “growth, PKI (20 μM) + BRI (20 μM)” value is reported as “++ (++: growth ≥80% compared to no treatment)”.

As for `COc1ccc(-c2ccc3c(N4CCOC[C@@H]4C)nc(N4CCOC[C@@H]4C)nc3n2)cc1CO` [AZD + 8055], the “growth, PKI (20 μM)” value is given as “++ (++: growth ≥80% compared to no treatment)” and the “growth, PKI (20 μM) + BRI (20 μM)” value is given as “++ (++: growth ≥80% compared to no treatment)”.

Turning to `O=C(NCCCNc1nc(Nc2cccc(NC(=O)N3CCCC3)c2)ncc1I)c1cccs1` [BX + 795], the “growth, PKI (20 μM)” value is on record as “++ (++: growth ≥80% compared to no treatment)” and the “growth, PKI (20 μM) + BRI (20 μM)” value is recorded as “++ (++: growth ≥80% compared to no treatment)”.

For `CCN1C(=O)CNc2ncc(-c3ccc(-c4nc[nH]n4)nc3C)nc21` [CC + 115], the “growth, PKI (20 μM)” value was “++ (++: growth ≥80% compared to no treatment)” and the “growth, PKI (20 μM) + BRI (20 μM)” value was “++ (++: growth ≥80% compared to no treatment)”.

In the case of `Cc1cnc(-c2cnc(NCCNc3ccc(C#N)cn3)nc2-c2ccc(Cl)cc2Cl)[nH]1` [CHIR + 99021], the “growth, PKI (20 μM)” value was “++ (++: growth ≥80% compared to no treatment)” and the “growth, PKI (20 μM) + BRI (20 μM)” value is given as “++ (++: growth ≥80% compared to no treatment)”.

In the case of `O=C(O)c1ccc2c(c1)nc(Nc1cccc(Cl)c1)c1cnccc12` [CX + 4945], the “growth, PKI (20 μM)” value is “++ (++: growth ≥80% compared to no treatment)” and the “growth, PKI (20 μM) + BRI (20 μM)” value is recorded as “++ (++: growth ≥80% compared to no treatment)”.

Turning to `NC(=O)c1ccc(-c2nc(-c3ccc4c(c3)OCCO4)c(-c3ccccn3)[nH]2)cc1` [D4476], the “growth, PKI (20 μM)” value is given as “++ (++: growth ≥80% compared to no treatment)” and the “growth, PKI (20 μM) + BRI (20 μM)” value is “++ (++: growth ≥80% compared to no treatment)”.

On to `CCn1c(=O)c(-c2ccc(-c3cncs3)cc2Cl)cc2cnc(Nc3ccc(N4CCN(C)CC4)cc3)nc21` [FRAX597], for which the “growth, PKI (20 μM)” value is reported as “++ (++: growth ≥80% compared to no treatment)” and the “growth, PKI (20 μM) + BRI (20 μM)” value was “++ (++: growth ≥80% compared to no treatment)”.

For `CNc1ncc2cc(-c3ccc(-c4cccc(C)n4)cc3Cl)c(=O)n(C[C@H]3OC[C@H](N)CO3)c2n1` [G5555], the activity at 20 µM is over 80% and the “growth, PKI (20 μM) + BRI (20 μM)” value is recorded as “++ (++: growth ≥80% compared to no treatment)”.

For the compound `COc1cc2c(Nc3cccc(NC(=O)c4ccccc4)c3)ncnc2cc1OCCCN1CCOCC1` [GSK223810A], the activity at 20 µM is over 80% and the “growth, PKI (20 μM) + BRI (20 μM)” value is “++ (++: growth ≥80% compared to no treatment)”.

For the compound `NS(=O)(=O)c1ccc(N/N=C2\C(=O)Nc3ccc(C(=O)NCCCn4ccnc4)cc32)cc1` [GW290597X], the “growth, PKI (20 μM)” value is listed as “++ (++: growth ≥80% compared to no treatment)” and the “growth, PKI (20 μM) + BRI (20 μM)” value is “++ (++: growth ≥80% compared to no treatment)”.

On to `COc1ccc2[nH]c3c4[nH]c5ccc(OC)cc5c4c4c(c3c2c1)C(=O)NC4=O` [GW296115X], for which the “growth, PKI (20 μM)” value was “++ (++: growth ≥80% compared to no treatment)” and the “growth, PKI (20 μM) + BRI (20 μM)” value is on record as “++ (++: growth ≥80% compared to no treatment)”.

As for `NS(=O)(=O)c1ccc(N/N=C2\C(=O)Nc3ccc(C(=O)NCc4ccncc4)cc32)cc1` [GW300657X], the “growth, PKI (20 μM)” value was “++ (++: growth ≥80% compared to no treatment)” and the “growth, PKI (20 μM) + BRI (20 μM)” value was “++ (++: growth ≥80% compared to no treatment)”.

On to `NS(=O)(=O)c1ccc(N/N=C2\C(=O)Nc3ccc(C(=O)NCCc4c[nH]cn4)cc32)cc1` [GW300660X], for which the “growth, PKI (20 μM)” value is “++ (++: growth ≥80% compared to no treatment)” and the “growth, PKI (20 μM) + BRI (20 μM)” value is “++ (++: growth ≥80% compared to no treatment)”.

With `O=C1Nc2ccc(I)cc2C1=Cc1cc(Br)c(O)c(Br)c1` [GW305074X], the “growth, PKI (20 μM)” value is on record as “++ (++: growth ≥80% compared to no treatment)” and the “growth, PKI (20 μM) + BRI (20 μM)” value was “++ (++: growth ≥80% compared to no treatment)”.

As to `CC(C)COC(=O)c1ccc2c(c1)/C(=C/Nc1ccc(S(N)(=O)=O)cc1)C(=O)N2` [GW416981X], the “growth, PKI (20 μM)” value was “++ (++: growth ≥80% compared to no treatment)” and the “growth, PKI (20 μM) + BRI (20 μM)” value is listed as “++ (++: growth ≥80% compared to no treatment)”.

Regarding `Fc1ccc(-c2nn3ccccc3c2-c2ccncc2)cc1` [GW434756X], the “growth, PKI (20 μM)” value is recorded as “++ (++: growth ≥80% compared to no treatment)” and the “growth, PKI (20 μM) + BRI (20 μM)” value is recorded as “++ (++: growth ≥80% compared to no treatment)”.

Consider `O=C1NC(=O)C(c2cnc3ccccn23)=C1c1cn2c3c(cc(F)cc13)CN(C(=O)N1CCCCC1)CC2` [LY2090314], for which the activity at 20 µM is over 80% and the “growth, PKI (20 μM) + BRI (20 μM)” value is listed as “++ (++: growth ≥80% compared to no treatment)”.

Consider `C[C@@]1(c2ncncc2F)NC(=O)c2cc(-c3cn[nH]c3)ccc21` [LY3177833], for which the “growth, PKI (20 μM)” value was “++ (++: growth ≥80% compared to no treatment)” and the “growth, PKI (20 μM) + BRI (20 μM)” value is reported as “++ (++: growth ≥80% compared to no treatment)”.

As to `Cc1nc(Nc2n[nH]c3c2CN(C(=O)N[C@H](CN(C)C)c2ccccc2)C3(C)C)c2sccc2n1` [PF + 3758309], the “growth, PKI (20 μM)” value was “++ (++: growth ≥80% compared to no treatment)” and the “growth, PKI (20 μM) + BRI (20 μM)” value was “++ (++: growth ≥80% compared to no treatment)”.

On to `CCc1cncnc1N1CCN(Cc2nc3ccc(C(F)(F)F)cc3[nH]2)CC1` [PF + 4708671], for which the “growth, PKI (20 μM)” value was “++ (++: growth ≥80% compared to no treatment)” and the “growth, PKI (20 μM) + BRI (20 μM)” value is “++ (++: growth ≥80% compared to no treatment)”.

For the compound `O=C1NCCc2[nH]c(-c3ccncc3)cc21` [PHA + 767491], the “growth, PKI (20 μM)” value is “++ (++: growth ≥80% compared to no treatment)” and the “growth, PKI (20 μM) + BRI (20 μM)” value is on record as “++ (++: growth ≥80% compared to no treatment)”.

Regarding `Cn1cc(C2=C(c3ccc(Cl)cc3Cl)C(=O)NC2=O)c2ccccc21` [SB 216763], the activity at 20 µM is over 80% and the “growth, PKI (20 μM) + BRI (20 μM)” value was “++ (++: growth ≥80% compared to no treatment)”.

With `C[S+]([O-])c1ccc(-c2nc(-c3ccc(F)cc3)c(-c3ccncc3)[nH]2)cc1` (centres unmarked) [SB + 203580], the “growth, PKI (20 μM)” value is “++ (++: growth ≥80% compared to no treatment)” and the “growth, PKI (20 μM) + BRI (20 μM)” value is listed as “++ (++: growth ≥80% compared to no treatment)”.

In the case of `O=C(Nc1ccc2[nH]nc(-c3ccncc3)c2c1)[C@@H]1CCN(CC(=O)N2CCN(c3ccc(-c4ncccn4)cc3)CC2)C1` [SCH772984], the activity at 20 µM is over 80% and the “growth, PKI (20 μM) + BRI (20 μM)” value is “++ (++: growth ≥80% compared to no treatment)”.

Take `CNC(=O)c1cc(Oc2ccc(NC(=O)Nc3ccc(Cl)c(C(F)(F)F)c3)cc2)ccn1` [Sorafenib]: the activity at 20 µM is over 80% and the “growth, PKI (20 μM) + BRI (20 μM)” value was “++ (++: growth ≥80% compared to no treatment)”.

For the compound `CCc1nc(-c2cccc(C)c2)c(-c2ccnc(NC(=O)c3ccccc3)c2)s1` [TAK + 715], the “growth, PKI (20 μM)” value is reported as “++ (++: growth ≥80% compared to no treatment)” and the “growth, PKI (20 μM) + BRI (20 μM)” value is on record as “++ (++: growth ≥80% compared to no treatment)”.

Turning to `Cc1ccc(-c2csc3ncnc(SCCC(=O)O)c23)cc1` [TTP 22], the “growth, PKI (20 μM)” value is “++ (++: growth ≥80% compared to no treatment)” and the “growth, PKI (20 μM) + BRI (20 μM)” value is given as “++ (++: growth ≥80% compared to no treatment)”.

`Nc1ccc(-c2ccc3ncc4ccc(=O)n(-c5cccc(C(F)(F)F)c5)c4c3c2)cn1` [Torin 2]: the “growth, PKI (20 μM)” value is listed as “++ (++: growth ≥80% compared to no treatment)” and the “growth, PKI (20 μM) + BRI (20 μM)” value was “++ (++: growth ≥80% compared to no treatment)”.

In the case of `O=c1ncn2nc(Sc3ccc(F)cc3F)ccc2c1-c1c(Cl)cccc1Cl` [VX + 745], the “growth, PKI (20 μM)” value is on record as “++ (++: growth ≥80% compared to no treatment)” and the “growth, PKI (20 μM) + BRI (20 μM)” value is given as “++ (++: growth ≥80% compared to no treatment)”.

Consider `O=c1[nH]c(C2CCCN2)nc2c1oc1ccc(Cl)cc12` (centres unmarked) [XL413], for which the “growth, PKI (20 μM)” value is recorded as “++ (++: growth ≥80% compared to no treatment)” and the “growth, PKI (20 μM) + BRI (20 μM)” value is listed as “++ (++: growth ≥80% compared to no treatment)”.

Take `CCOc1cc(N2CCC(O)CC2)ccc1Nc1ncc2c(n1)N(C)c1ccccc1C(=O)N2C` [XMD8 + 92]: the “growth, PKI (20 μM)” value is “++ (++: growth ≥80% compared to no treatment)” and the “growth, PKI (20 μM) + BRI (20 μM)” value was “++ (++: growth ≥80% compared to no treatment)”.

Consider `CC1(N)CCN(c2cccnc2NC(=O)c2nc(-c3ncccc3C(F)(F)F)cnc2N)CC1` [darovasertib], for which the activity at 20 µM was over 80% and the “growth, PKI (20 μM) + BRI (20 μM)” value is “++ (++: growth ≥80% compared to no treatment)”.

Consider `Cn1cc(C2=C(c3cn(C4CCN(Cc5ccccn5)CC4)c4ccccc34)C(=O)NC2=O)c2ccccc21` [enzastaurin], for which the activity at 20 µM was over 80% and the “growth, PKI (20 μM) + BRI (20 μM)” value was “++ (++: growth ≥80% compared to no treatment)”.

In the case of `CC(C)(C)Cn1c(N)nc2ccc(-c3[nH]c(C(C)(C)C)nc3-c3ccc(F)cc3)nc21` [ralimetinib], the activity at 20 µM was over 80% and the “growth, PKI (20 μM) + BRI (20 μM)” value is “++ (++: growth ≥80% compared to no treatment)”.

In the case of `COc1cc(F)c(F)c(Nc2ccc(I)cc2F)c1NS(=O)(=O)C1(C[C@H](O)CO)CC1` [refametinib], the activity at 20 µM was over 80% and the “growth, PKI (20 μM) + BRI (20 μM)” value is reported as “++ (++: growth ≥80% compared to no treatment)”.

Turning to `Cn1cnc2c(F)c(Nc3ccc(Br)cc3Cl)c(C(=O)NOCCO)cc21` [selumetinib], the activity at 20 µM was over 80% and the “growth, PKI (20 μM) + BRI (20 μM)” value is listed as “++ (++: growth ≥80% compared to no treatment)”.

Take `CNC(=O)c1cccc(-c2ccc3c(N4CCOC[C@@H]4C)nc(N4CCOC[C@@H]4C)nc3n2)c1` [vistusertib]: the activity at 20 µM is over 80% and the “growth, PKI (20 μM) + BRI (20 μM)” value is recorded as “++ (++: growth ≥80% compared to no treatment)”.
